Holding throughout (assay): NCI tumour cell line growth inhibition, 48 h
In assay [1] the test system is ACHN.
Assay [2] has as its system COLO 205.
In assay [3] the test system is EKVX.
Assay [4] concerns HCC 2998.
The test system of assay [5] is HCT-116.
Assay [6] deals with IGROV-1.
The test system of assay [7] is MCF7.
Assay [8] deals with MDA-MB-231.
In assay [9] the test system is NCI-H23.
Assay [10] relates to NCI-H460.
Assay [11] deals with NCI-H522.
Assay [12] has as its system OVCAR-3.
Assay [13] relates to RPMI-8226.
Assay [14] relates to SF-295.
The subject of assay [15] is SK-MEL-5.
For assay [16], the system named is SN12C.
Assay [17] concerns SW-620.
Assay [18] concerns TK-10.

These results are taken from ChEMBL document CHEMBL1201862, “PubChem BioAssay data set” (2004).

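Each compound was tested at five concentrations against cells in 96-well plates for 48 hours. At the GI50, growth is halved.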 Activity calls are given as the source filed them. No stated cut-off is given here; in the data, active = GI50 up to about 1.1 µM and inactive = higher.

Regarding `CN(Cc1c2ccccc2cc2ccccc12)S(=O)(=O)c1ccc(-c2c3nc(c(-c4ccc(S(=O)(=O)N(C)Cc5c6ccccc6cc6ccccc56)cc4)c4ccc([nH]4)c(-c4ccc(S(=O)(=O)N(C)Cc5c6ccccc6cc6ccccc56)cc4)c4nc(c(-c5ccc(S(=O)(=O)N(C)Cc6c7ccccc7cc7ccccc67)cc5)c5ccc2[nH]5)C=C4)C=C3)cc1`, the GI50 in assay [1], in [2], in [3], in [4], in assay [5] and in assay [6] was > 100 µM (inactive) each time. Moreover, the GI50 in assay [7], in assay [8], in assay [9], in assay [10], in assay [11] and in assay [12] was > 100 µM (inactive) throughout. The GI50 in assay [13] was > 100 µM (inactive); in [14] it was 63.7 µM (inactive); in [15], > 100 µM (inactive); in assay [16] it was > 100 µM (inactive); in [17], > 100 µM (inactive); in assay [18], > 100 µM (inactive).
In the case of `COc1ccc(/C=C2\S/C(=N/Nc3nc(-c4ccccc4)cs3)NC2=O)cc1OC`, the GI50 in assay [1] is 24.7 µM (inactive); in [2], 35.6 µM (inactive); in [3] it was 22.6 µM (inactive); in [4], 22.4 µM (inactive); in assay [5], 17.1 µM (inactive); in [6], 12.6 µM (inactive). Besides, the GI50 in [7] was 19.2 µM (inactive); in assay [8], 21.9 µM (inactive); in assay [9], 19.1 µM (inactive); in assay [10], 23 µM (inactive); in [11], 18.5 µM (inactive); in assay [12] it was 15.9 µM (inactive). For the same compound, the GI50 in assay [14] is 25.3 µM (inactive); in assay [15], 15.5 µM (inactive); in assay [16] it was 17.8 µM (inactive); in assay [17] it was 30.3 µM (inactive); in [18] it was 20.5 µM (inactive).
`COc1cc2c(cc1C)NC(=O)/C2=C/c1c(Cl)n(-c2ccccc2)c2ccccc12`: the GI50 in [1] is 12.7 µM (inactive); in [2], 5.86 µM (inactive); in assay [3], 17.5 µM (inactive); in [4], 8.24 µM (inactive); in assay [5] it was 13.4 µM (inactive); in assay [6], 34.4 µM (inactive). The GI50 in assay [7] is 10.2 µM (inactive); in [8], 8.69 µM (inactive); in assay [9], 16.4 µM (inactive); in assay [10], 9.59 µM (inactive); in [11] it was 11.4 µM (inactive); in assay [12], 7.91 µM (inactive). Further, the GI50 in assay [13] is 7.28 µM (inactive); in assay [14], 11.3 µM (inactive); in [15] it was 10.5 µM (inactive); in assay [16], 11.2 µM (inactive); in assay [17], 13.9 µM (inactive); in [18], 28.9 µM (inactive).
Take `CCCCOC(=O)Nc1ccc(S(=O)(=O)Nc2c(Cl)cccc2Cl)cc1`: the GI50 in assay [1] is 30.2 µM (inactive); in assay [2], 16.1 µM (inactive); in assay [3], 26.6 µM (inactive); in assay [4] it was 23.9 µM (inactive); in assay [5], 26.5 µM (inactive); in assay [6], 30.4 µM (inactive). The GI50 in [7] was 30.8 µM (inactive); in [8] it was 25.1 µM (inactive); in [9], 40.9 µM (inactive); in [10], 31.1 µM (inactive); in assay [11], 42.1 µM (inactive); in [12], 26.3 µM (inactive). Further, the GI50 in [13] was 17.1 µM (inactive); in [14] it was 32.3 µM (inactive); in [15] it was 14.1 µM (inactive); in assay [16], 34.1 µM (inactive); in [17], 24.4 µM (inactive); in assay [18], 36.6 µM (inactive).
Consider `CN(C)CCOC1(Cc2ccc(Cl)cc2Cl)CCC(C(C)(C)C)CC1` (stereo not given), for which the GI50 in assay [1] is 2.99 µM (inactive); in assay [2], 1.62 µM (inactive); in assay [4], 1.63 µM (inactive); in [5] it was 1.6 µM (inactive); in assay [6], 3.44 µM (inactive); in assay [7], 2.01 µM (inactive). For the same compound, the GI50 in assay [8] was 7 µM (inactive); in assay [9] it was 2.5 µM (inactive); in assay [10], 1.66 µM (inactive); in assay [11], 1.79 µM (inactive); in assay [12], 1.71 µM (inactive); in assay [13], 2.16 µM (inactive). Further, the GI50 in assay [14] is 1.65 µM (inactive); in assay [15], 1.56 µM (inactive); in assay [16], 1.65 µM (inactive); in [17], 1.51 µM (inactive); in assay [18], 2.62 µM (inactive).
In the case of `C=CCNC1=C2C[C@@H](C)C[C@@H](OC)[C@H](OC(=O)CCN)[C@H](C)/C=C(\C)[C@@H](OC(N)=O)[C@H](OC)/C=C\C=C(/C)C(=O)NC(=CC1=O)C2=O`, the GI50 was 12.6 µM (inactive) in [1]; 0.718 µM (active) in assay [2]; 8.75 µM (inactive) in assay [3]; 1.06 µM (active) in assay [4]; 3.53 µM (inactive) in assay [5]; 4.74 µM (inactive) in assay [6]. In addition, the GI50 in assay [7] is 0.703 µM (active); in assay [8], 5.19 µM (inactive); in assay [9], 3.01 µM (inactive); in assay [10] it was 2.77 µM (inactive); in assay [11], 5.3 µM (inactive); in assay [12], 2.45 µM (inactive). The GI50 in assay [13] is 6.08 µM (inactive); in assay [14], 3.75 µM (inactive); in assay [15], 4.12 µM (inactive); in assay [16], 2.34 µM (inactive); in assay [17], 3.6 µM (inactive); in assay [18] it was 2.17 µM (inactive).
For `CC1(C)CNC(=O)C2(CCCO2)CNC(C)(C)CNC(=O)C2(CCCO2)CN1` (stereo not given), the GI50 in assay [1], in assay [2], in [4], in assay [5], in assay [6] and in assay [7] was > 10 µM (inactive) in each case. Besides, the GI50 in [8], in assay [9], in [11], in assay [12], in assay [13] and in [14] was > 10 µM (inactive) in each case. In addition, the GI50 in assay [15], in assay [16], in assay [17] and in assay [18] was > 10 µM (inactive) each time.
As for `Clc1sc(Cl)c2c1[C@H](Br)C[C@@H]2Cl`, the GI50 in assay [1] was 18.8 µM (inactive); in assay [2], 20.1 µM (inactive); in assay [3] it was 35.9 µM (inactive); in [4], 37.8 µM (inactive); in assay [5], 27.9 µM (inactive); in assay [6], 13.2 µM (inactive). For the same compound, the GI50 is 12.5 µM (inactive) in assay [7]; 21.4 µM (inactive) in assay [8]; 17.8 µM (inactive) in assay [9]; 41.6 µM (inactive) in assay [10]; 16.9 µM (inactive) in assay [11]; 23.8 µM (inactive) in assay [12]. For the same compound, the GI50 was 30.2 µM (inactive) in assay [13]; 99.5 µM (inactive) in assay [14]; 46.9 µM (inactive) in assay [15]; 29.5 µM (inactive) in [16]; 21.6 µM (inactive) in assay [17]; 33.7 µM (inactive) in assay [18].
